For one assay, the species on record is Cavia porcellus. Briefly: Opioid agonistic activity was measured in guinea pig ileum. The class given is functional.
For assay [1], the species on record is Mus musculus.
The species named for assay [2] is Mus musculus. Briefly: Opioid antagonist activity of compound was measured as inhibiting the binding of normorphine to mouse vas deferens. The class given is functional.
Assay [3] deals with Opioid receptors; mu & kappa. Particulars: Cavia porcellus; Ileum.
The species entered for assay [4] is Mus musculus. Briefly: Opioid agonistic activity was measured in mouse vas deferens. The class given is functional.
For assay [5], the species on record is Mus musculus. Briefly: Opioid agonistic activity was measured in mouse vas deferens. The class given is functional.

Molecules are shown by their SMILES. Values joined by “and” are separate entries in the source; they are usually repeats but may differ in a detail not shown here. Equal entries are not always repeated. Active and inactive are the calls of the source. The calls are words filed in the database; no cut-off is given here.

As to `O=C1CC[C@@]2(O)[C@H]3Cc4ccc(O)c5c4[C@@]2(CCN3CC2CC2)[C@H]1O5` [NALTREXONE], the Inhibition in the assay filed under Cavia porcellus stood at 25%.
Turning to `CN1CC[C@]23c4c5ccc(O)c4O[C@H]2[C@@H](O)C=C[C@H]3[C@H]1C5`, the Ke result in the assay filed under Mus musculus [1] was “inactive”.
For the molecule `O=C1C=C[C@@]2(Cl)C3Cc4ccc(O)c5c4C2(CCN3CC2CC2)[C@H]1O5` (some centres undefined), the Ke is 16.6 nM in the assay filed under Mus musculus [2] and 3.92 nM in assay [3].
As to `C=CCN1CC[C@]23c4c5ccc(O)c4O[C@H]2[C@@H](O)C=C[C@H]3[C@H]1C5` [NALORPHINE], the Ke in the assay listed under Mus musculus [2] stood at 28.7 nM; in assay [3] it was 4.47 nM. Further, the IC50 in the assay filed under Cavia porcellus came out at 24.3 nM; in the assay filed under Mus musculus [4] it was 535 nM.
In the case of `Oc1ccc2c3c1O[C@H]1[C@@H](O)C=C[C@@]4(S)C(C2)N(CC2CC2)CCC314` (some centres undefined), the Ke is 22.9 nM and 20 nM in the assay filed under Mus musculus [2]; 1.69 nM in assay [3]. Also, the IC50 in the assay listed under Cavia porcellus was determined as 39.1 nM; in the assay listed under Mus musculus [4], 218 nM.
As to `O=C1C=C[C@@]2(Br)C3Cc4ccc(O)c5c4C2(CCN3CC2CC2)[C@H]1O5` (some centres undefined), the Ke in the assay listed under Mus musculus [2] was 2.35 nM and 2.83 nM; in assay [3] it was 1.36 nM.
In the case of `O=C1C=C[C@@]2([N+](=O)[O-])C3Cc4ccc(O)c5c4C2(CCN3CC2CC2)[C@H]1O5` (some centres undefined), the figures for the Ke (in the assay filed under Mus musculus [2]; in assay [3]) were 14.9 nM and 4.44 nM, respectively. Further, the IC50 in the assay filed under Cavia porcellus worked out at 41.2 nM; in the assay filed under Mus musculus [4], 330 nM; in the assay listed under Mus musculus [5], 580 nM.
Regarding `Oc1ccc2c3c1O[C@H]1[C@@H](O)C=C[C@@]4(O)C(C2)N(CC2CC2)CCC314` (some centres undefined), the Ke in the assay listed under Mus musculus [2] is 10.5 nM and 9 nM; in assay [3], 2.35 nM.
In the case of `C=CCN1CC[C@]23c4c5ccc(O)c4O[C@H]2C(=O)CC[C@@]3(O)[C@H]1C5` [NALOXONE], the Ke in the assay listed under Mus musculus [2] is recorded as 3.66 nM.
As for `Oc1ccc2c3c1O[C@H]1[C@@H](O)C=C[C@H]4C(C2)N(CC2CC2)CCC341` (some centres undefined), the IC50 in the assay listed under Cavia porcellus came out at 2.16 nM. Besides, in assay [3], the Ke came to 0.8 nM.

For the origin of these results see ChEMBL document CHEMBL1121787, “Some 14 beta-substituted analogues of N-(cyclopropylmethyl)normorphine” (J Med Chem, 1981).
